# Measurements taken from patent US10894014B2, “Orodispersible tablet containing Estetrol” (ESTETRA SPRL, priority 2015, dated 2021).
# How the values were obtained:
# [1] = Randomized, open-label, two-period, cross-over pharmacokinetic study, sublingual vs oral estetrol tablet; format: in vivo, healthy female volunteers; conditions: 10 mg estetrol sublingual vs oral tablet
# Experimental: A randomized, open-label, two-period, cross-over, pharmacokinetic study is conducted to compare sublingual bioavailability of 10 mg estetrol administered in one 80 mg tablet with oral availability of estetrol contained in a 83 mg tablet containing 10 mg estetrol. These tablets are administered sublingually and orally to healthy female volunteers under fasting conditions.
# Ten healthy female subjects are selected on the basis of the following criteria: age of 45-65 years (inclusive), nonsmokers or past smokers (at least 6 months before dosing), body-mass index (BMI)=18.5 to 30 kg/m^2 (inclusive at the time of the screening).
# At the start of the first and the second period of the study, between 07:00 am and 07:28 am, 5 subjects receive a single dose of the sublingual formulation of estetrol by administering one estetrol tablet (tablet weight 80 mg; 10 mg estetrol) and 5 subjects receive a single oral dose of the oral estetrol formulation by administering one estetrol tablet (tablet weight 83 mg; 10 mg estetrol), ingested together with 200 ml water. […]
# The estetrol concentration in the collected blood samples is determined by means of HPLC/MS/MS. The concentrations of glucuronided estetrol (D-ring) in the urine samples is also determined with the help of HPLC/MS/MS.
# [2] = humans, cited from earlier work
# estrogen receptors = conditions: in vitro; cited from earlier work
# [3] = molecular target: T1, sex hormone binding globulin (SHBG) (Homo sapiens, UniProt P04278); conditions: in vitro; cited from earlier work
# T1 sequence (P04278 30-402): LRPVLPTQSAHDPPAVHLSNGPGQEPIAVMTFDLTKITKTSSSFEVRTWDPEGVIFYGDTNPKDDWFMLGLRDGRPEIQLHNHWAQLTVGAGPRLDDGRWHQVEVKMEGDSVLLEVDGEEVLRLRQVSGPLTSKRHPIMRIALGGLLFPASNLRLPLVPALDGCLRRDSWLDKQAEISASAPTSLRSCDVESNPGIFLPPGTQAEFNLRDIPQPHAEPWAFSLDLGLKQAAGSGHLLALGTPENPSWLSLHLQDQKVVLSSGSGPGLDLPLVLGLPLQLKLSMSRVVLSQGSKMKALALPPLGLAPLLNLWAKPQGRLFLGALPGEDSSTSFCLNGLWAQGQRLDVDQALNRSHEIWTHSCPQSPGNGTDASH
# production of SHBG = conditions: in vitro; cited from earlier work
# [4] = system: vagina, uterus, body weight, bone mass, bone strength, hot flushes, ovulation; conditions: dose-dependent; cited from earlier work
# DMBA mammary tumour = conditions: extent and dose level similar to tamoxifen and to ovariectomy; cited from earlier work
# [5] = system: human breast cancer cells; conditions: in vitro; cited from earlier work
structure (smiles),measurement,setting,value
"C[C@]12CC[C@@H]3c4ccc(O)cc4CC[C@H]3[C@@H]1[C@@H](O)[C@@H](O)[C@@H]2O [estetrol, 1,3,5 (10)-estratrien-3,15α,16α,17β-tetrol]",impact on a liver function parameter,[1],less impact on a liver function parameter
same,oral bioavailability,[2]; oral,high and dose-proportional
same,terminal elimination half-life,[2],about 28 hours
same,"binding to estrogen receptors, selectivity",estrogen receptors,binds highly selective to the estrogen receptors with preference for the ERα form
same,binding to SHBG,[3],does not bind
same,stimulation of production of SHBG,production of SHBG,does not stimulate
same,estrogenic effects in rat models,[4],"estrogenic effects on the vagina, the uterus (both myometrium and endometrium), body weight, bone mass, bone strength, hot flushes and on ovulation (inhibition)"
same,tumour development,DMBA mammary tumour,prevented tumour development
same,effect in the presence of 17β-estradiol,[5],anti-estrogenic effect
